Tests used:
cell culture GMK-AH (1D) = assay: Evaluation of cytotoxicity in cell culture GMK-AH (1D); type: cell-based
Experimental: Evaluation of the cytotoxicity of the test compound using a constant cell culture GMK-AH (1D).
To form a continuous monolayer, 1 ml of cell suspension with a density of 200 thousand/ml was added into each tubes and incubate at a temperature (37.0±0.5)° C., 5% CO2.
Then the growth medium was removed and fresh medium containing various concentrations of test drugs (from 1000 to 6.25 µg/ml) was added. The tubes were then incubated for 5 days at a temperature (37.0+0.5)° C., 5% CO2.
Using a light microscope, the state of the monolayer cells was observed: partial or complete destruction of the monolayer cells, damage to individual cells, cell syncytium formation. Control samples were tubes with a monolayer, which included maintenance medium without a drug.

West Nile virus = assay: Effectiveness in cell culture GMK-AH (1D) against West Nile virus; type: cell-based
Experimental: Monolayer of the cell culture GMK-AH (1D) was infected with West Nile virus in a dose of 0.05 PFU/cell. Virus was adsorbed at 37° C., 5% CO2, for 60 minutes. At the end of the incubation, the monolayer was washed three times with maintenance medium containing 100 u/ml penicillin and streptomycin to remove non-adsorbed virus, and test compounds were added at a concentration of ½ MIC. The substance was dissolved in maintenance medium to the desired concentration. For each compound, not less than 10 tubes with a monolayer of cells were used. Incubation was performed at 37° C., 5% CO2 for 48 hours. Next, the cryodestruction of cells was performed and the samples were combined. The infectious titer in the combined samples was determined by titration by forming negative colonies under the agar coating in the cell culture GMK-AH (1D).

[1] = cytotoxicity, GMK-AH (1D), 5 days
[2] = 250.0 μg/ml (½ MIC), GMK-AH (1D), 0.05 PFU/cell, 48 hours

`CSc1nc2[nH]nc([N+](=O)[O-])c(=O)n2n1` [Claimed compound, 2-methylsulfanyl-6-nitro-7-oxo-1,2,4-triazolo[5,1-c] [1,2,4]triazinid L-arginine dihydrate] was tested, and the “The frequency of the cytopathic effect of the claimed compound” value (shortened to “The frequency”) (cell culture GMK-AH (1D); concentration 7.8 mg/mL, GMK-AH (1D), 5 days) was 0/4, the “The frequency” value (cell culture GMK-AH (1D); concentration 15.5 mg/mL, GMK-AH (1D), 5 days) was 0/4 and the “The frequency” value (cell culture GMK-AH (1D); concentration 31.3 mg/mL, GMK-AH (1D), 5 days) was 0/4. For the same compound, the “The frequency” value (cell culture GMK-AH (1D); concentration 62.5 mg/mL, GMK-AH (1D), 5 days) was 0/4, the “The frequency” value (cell culture GMK-AH (1D); concentration 250.0 mg/mL, GMK-AH (1D), 5 days) was 0/4 and the “The frequency” value (cell culture GMK-AH (1D); concentration 500.0 mg/mL, GMK-AH (1D), 5 days) was 0/4. For the same compound, the “The frequency” value (cell culture GMK-AH (1D); concentration 1000.0 mg/mL, GMK-AH (1D), 5 days) was 2/4, the “The frequency” value (cell culture GMK-AH (1D); concentration 125,0 mg/mL, GMK-AH (1D), 5 days) was 0/4 and the “visible changes in the cell culture” value (cell culture GMK-AH (1D); concentration of 500 μg/ml, GMK-AH (1D)) was “did not cause any visible changes”. The “toxicity in the concentrations used” value (cell culture GMK-AH (1D); concluding statement) was “nontoxic”, the “½ MIC” value (cell culture GMK-AH (1D); cytotoxicity, GMK-AH (1D)) was 250.0 µg/mL and the MIC (cell culture GMK-AH (1D); [1]) was 500.0 µg/mL. The cytotoxic concentration (cell culture GMK-AH (1D); [1]) was 1000.0 µg/mL, the “Level of the virus accumulation” value (West Nile virus; [2]) was 4.2 lg PFU/ml and the “Reduction of the virus accumulation” value (West Nile virus; [2]) was 2.3 lg PFU/ml. The inhibiting factor (West Nile virus; Table 2, GMK-AH (1D)) was 99.5%, the “inhibits the reproduction of West Nile virus” value (West Nile virus; Table 2, GMK-AH (1D)) was 2.31 g and the “antiviral activity in vitro against West Nile virus” value (West Nile virus; concluding statement) was “significant antiviral activity”.

— US9790227B2, “2-methylsulphanyl-6-nitro-7-oxo-1, 2, 4-triazolo [5, 1-C] [1, 2, 4] triazinide L-arginine dihydrate active toward west nile virus” (LIMITED LIABILITY COMPANY “URAL CENTER OF BIOPHARMACEUTICAL …, priority 2013, dated 2017)
